The compounds below were run against T1, Phosphatidylinositol 4,5-bisphosphate 3-kinase catalytic subunit delta isoform (Homo sapiens, UniProt O00329) (assay: Inhibition Assay of PI3K).
T1 sequence (O00329 whole entry): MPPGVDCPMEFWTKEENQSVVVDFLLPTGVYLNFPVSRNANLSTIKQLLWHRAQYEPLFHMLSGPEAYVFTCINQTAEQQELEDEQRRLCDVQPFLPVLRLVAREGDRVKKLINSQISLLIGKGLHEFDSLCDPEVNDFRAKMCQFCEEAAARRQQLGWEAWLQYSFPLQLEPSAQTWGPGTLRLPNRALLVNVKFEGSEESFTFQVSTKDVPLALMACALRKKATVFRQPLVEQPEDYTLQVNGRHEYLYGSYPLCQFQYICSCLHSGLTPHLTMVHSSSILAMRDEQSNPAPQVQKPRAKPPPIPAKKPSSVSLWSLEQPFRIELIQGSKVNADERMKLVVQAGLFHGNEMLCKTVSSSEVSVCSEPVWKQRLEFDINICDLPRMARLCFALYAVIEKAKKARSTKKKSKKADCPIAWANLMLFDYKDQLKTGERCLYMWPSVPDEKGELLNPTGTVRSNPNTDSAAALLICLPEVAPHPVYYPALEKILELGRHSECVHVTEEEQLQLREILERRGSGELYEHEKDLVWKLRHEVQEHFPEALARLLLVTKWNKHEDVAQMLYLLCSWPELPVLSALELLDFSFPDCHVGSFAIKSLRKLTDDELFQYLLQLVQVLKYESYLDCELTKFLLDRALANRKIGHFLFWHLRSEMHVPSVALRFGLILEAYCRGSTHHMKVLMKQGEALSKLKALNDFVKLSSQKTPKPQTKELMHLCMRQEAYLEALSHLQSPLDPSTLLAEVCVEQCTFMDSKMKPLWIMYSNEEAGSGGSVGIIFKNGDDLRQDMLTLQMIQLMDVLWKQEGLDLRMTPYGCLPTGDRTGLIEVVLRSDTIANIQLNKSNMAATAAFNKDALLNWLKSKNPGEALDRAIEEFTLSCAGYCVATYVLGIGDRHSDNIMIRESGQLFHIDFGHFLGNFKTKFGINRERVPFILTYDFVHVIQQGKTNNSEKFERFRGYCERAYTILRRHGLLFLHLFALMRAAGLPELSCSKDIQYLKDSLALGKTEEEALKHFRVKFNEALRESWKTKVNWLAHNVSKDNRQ

| SMILES | IC50 [µM] |
| --- | --- |
| Nc1nc2cc(-c3ccc4ncc(C(=O)N5CCn6cncc6C5)n4c3)ccc2o1 [US11547697, Compound 493] | > 10 |
| Nc1nc2cc(-c3ccc4nccc(NC5CCOCC5)c4c3)ccc2o1 [US11547697, Compound 32] | > 10 |
| Nc1nc2cc(-c3ccc4ncc(C(=O)N5CCOCC5)n4c3)cnc2o1 [US11547697, Compound 400] | > 10 |
| Nc1nc2cc(-c3ccc4ncc(C(=O)N5CCOCC5)n4n3)ccc2o1 [US11547697, Compound 105] | > 10 |
| CC(C)N1CCC(n2cnc3ccc(-c4ccc5oc(N)nc5c4)cc3c2=O)CC1 [US11547697, Compound 74] | > 10 |
| C[C@H]1CN(c2cnc3ccc(-c4ccc5nc(N)oc5c4)cc3n2)CCN1 [US11547697, Compound 309] | > 10 |
| CN1CCN(c2cnc3ccc(-c4ccc5nc(N)oc5c4)cc3n2)CC1 [US11547697, Compound 118] | > 10 |
| Nc1nc2cc(-c3ccc4ncn(C5CCNCC5)c(=O)c4c3)ccc2o1 [US11547697, Compound 75] | > 10 |
| CN(CCN1CCOCC1)c1cnc2ccc(-c3ccc4oc(N)nc4c3)cc2n1 [US11547697, Compound 166] | > 10 |
| COCCN1CCN(c2cnc3ccc(-c4ccc5oc(N)nc5c4)cc3n2)CC1 [US11547697, Compound 387] | > 10 |
| Nc1nc2cc(-c3ccc4ncc(N5CCOCC5)nc4c3)ccc2s1 [US11547697, Compound 116] | > 10 |
| Nc1nc2cc(-c3ccc4ncc(C(=O)N(CCO)CCO)n4c3)ccc2o1 [US11547697, Compound 316] | > 10 |
| Nc1nc2cc(-c3ccc4ncc(=O)[nH]c4c3)ccc2o1 [US11547697, Compound 72] | > 10 |
| Nc1nc2cc(-c3ccc4sc(N)nc4c3)cc(F)c2o1 [US11547697, Compound 437] | > 10 |
| Nc1nc2cc(-c3ccc4ncc(C(=O)N5CC6(C5)OCCO6)n4c3)ccc2o1 [US11547697, Compound 494] | > 10 |
| Nc1nc2ccc(-c3ccc4nc(N)sc4c3)cc2o1 [US11547697, Compound 243] | > 10 |
| Nc1cn2cc(-c3ccc4oc(N)nc4c3)ccc2n1 [US11547697, Compound 245] | > 10 |
| CC1CN(C(=O)c2cnc3ccc(-c4ccc5oc(N)nc5c4)cn23)CCO1 (stereo unspecified) [US11547697, Compound 201] | > 10 |
| Nc1nc2cc(-c3ccc4ncc(C(=O)N5CC6CCC(C5)O6)n4c3)ccc2o1 [US11547697, Compound 504] | > 10 |
| Nc1nc2cc(-c3ccc4ncc(N5CCN(C6CC6)CC5)nc4c3)ccc2o1 [US11547697, Compound 261] | > 10 |

Results, then the compound that gave them:

| IC50 [µM] | SMILES |
| --- | --- |
| > 10 | Nc1nc2cc(-c3ccc4nccn4c3)ccc2o1 [US11547697, Compound 40] |
| > 10 | Nc1nc2cc(-c3ccc4ncn(CCN5CCOCC5)c(=O)c4c3)ccc2o1 [US11547697, Compound 289] |
| > 10 | Nc1nc2cc(-c3ccc4ncc(C(=O)N5CC(F)C5)n4c3)ccc2o1 [US11547697, Compound 468] |
| > 10 | Nc1nc2cc(-c3ccc4ncc(-c5ccccn5)nc4c3)ccc2o1 [US11547697, Compound 195] |
| > 10 | Nc1nc2cc(-c3ccc4ncc(C(=O)N5CCOCC5)n4c3)ccc2s1 [US11547697, Compound 126] |
| > 10 | CC(=O)Nc1nc2ccc(-c3ccc4nc(N)oc4c3)cc2s1 [US11547697, Compound 242] |
| > 10 | Nc1nc2c(-c3ccc4ncc(C(=O)N5CCOCC5)n4c3)cccc2o1 [US11547697, Compound 496] |
| > 10 | Nc1nc2cc(-c3ccc4ncc(C(=O)N5CCCCC5)n4c3)ccc2o1 [US11547697, Compound 196] |
| > 10 | Nc1nc2ccc(-c3ccc4ncc(C(=O)N5CCOCC5)n4c3)cc2o1 [US11547697, Compound 124] |
| > 10 | C[C@@H]1COCCN1C(=O)c1cnc2ccc(-c3ccc4oc(N)nc4c3)cn12 [US11547697, Compound 495] |
| > 10 | C[C@H]1CN(c2cnc3ccc(-c4ccc5nc(N)sc5c4)cc3n2)CCN1 [US11547697, Compound 308] |
